Data set [1] is described as follows: Antioxidant activity assessed as total reducing activity after 30 mins by spectrophotometric analysis. It counts as functional.
Data set [2] can be described thus: Antioxidant activity assessed as ferric ion reducing ability by spectrophotometric analysis. It counts as functional.
Data set [3] can be described thus: Antioxidant activity assessed as EDTA chelating effect after 10 mins by spectrophotometric analysis. It counts as functional.
Data set [4] relates to Radical scavenging activity. Briefly: Antioxidant activity assessed as DPPH free radical scavenging activity after 30 mins by spectrophotometric analysis. It counts as functional. For orientation: Loss of DPPH colour is used to gauge radical scavenging.
Data set [5] can be described thus: Antioxidant activity assessed as nitric oxide scavenging activity after 150 mins by spectrophotometric analysis. It counts as functional. Set-up: concentration or dose not given beside the values.
Data set [6] in a line: Antioxidant activity assessed as super oxide scavenging activity after 150 mins by spectrophotometric analysis. It counts as functional. Further details: concentration or dose not given beside the values.
Data set [7] deals with Rattus norvegicus. Briefly: Toxicity in Wistar rat assessed as incidence of convulsion at 200 mg/kg, po measured after 24 hrs. It counts as organism-based. Further details: dose 200 mg/kg, route oral. The conditions noted are these: in vivo.
In data set [8] the test system is Rattus norvegicus. Briefly: Toxicity in Wistar rat assessed as incidence of tremor at 200 mg/kg, po measured after 24 hrs. It counts as organism-based. The conditions noted are these: in vivo. Set-up: dose 200 mg/kg, route oral.
Data set [9] relates to Rattus norvegicus. Briefly: Toxicity in Wistar rat assessed as grip strength at 200 mg/kg, po measured after 24 hrs. It counts as organism-based. Further details: dose 200 mg/kg, route oral. The conditions noted are these: in vivo.
Data set [10] deals with Rattus norvegicus. Briefly: Toxicity in Wistar rat assessed as pupil dilatation at 200 mg/kg, po measured after 24 hrs. The conditions noted are these: in vivo. It counts as organism-based. Set-up: dose 200 mg/kg, route oral.
The test system of data set [11] is Rattus norvegicus. Briefly: Toxicity in Wistar rat fed 4 hrs post dosing assessed as incidence of adverse effects at 2 mg/kg, po administered as single dose measured on day one. Conditions: in vivo. It counts as organism-based. Further details: dose 2 mg/kg, route oral.
In data set [12] the test system is Rattus norvegicus. Description: Toxicity in Wistar rat fed 4 hrs post dosing assessed as incidence of adverse effects at 2 mg/kg, po administered as single dose measured on day 14. It counts as organism-based. Further details: dose 2 mg/kg, route oral. The conditions noted are these: in vivo.
Data set [13] in a line: Toxicity in po dosed Wistar rat. It counts as organism-based. The conditions noted are these: in vivo.

On to `Cc1nc(=O)[nH]c2c1c(=O)[nH]c1ccccc12`, for which the Activity was 3880 µmol in data set [1]; 205 mmol in data set [2]; 10.7 mg in data set [3]; 1410 µg in data set [4]; 62.3% in data set [5]; 38% in data set [6]. Further, the Activity entry was “Toxic” with Rattus norvegicus [7]; “Toxic” in the data set on Rattus norvegicus [8]; “Toxic” in the data set on Rattus norvegicus [9]; “Toxic” in the data set with Rattus norvegicus [10]; “Non-toxic” with Rattus norvegicus [11]; “Non-toxic” in the data set on Rattus norvegicus [12]. Further, in [13], the MTD is 2000 mg/kg.
`Cc1cc(C(C)(C)C)c(O)c(C(C)(C)C)c1`: the Activity in [1] came to 13100 µmol; in data set [2], 134 mmol; in data set [3], 13.2 mg; in [4], 150 µg; in [5] it was 92.1%; in data set [6], 87.1%.
Turning to `CC1=NNC(=O)Nc2c1c(=O)[nH]c1ccccc21`, the Activity in [1] was 2590 µmol; in data set [3], 12.3 mg; in data set [4] it was 540 µg; in data set [5], 16.1%; in data set [6], 40.9%.
For the molecule `Cc1noc2c1c(=O)[nH]c1ccccc12`, the Activity in [1] amounted to 4010 µmol; in data set [2], 169 mmol; in data set [3], 4.9 mg; in [4] it was 466 µg; in data set [5] it was 40.3%; in data set [6] it was 16.6%.
On to `CC1=NNC(=S)Nc2c1c(=O)[nH]c1ccccc21`, for which the Activity in data set [1] is 2650 µmol; in data set [3], 9.1 mg; in data set [4] it was 752 µg; in data set [5], 61.6%; in [6] it was 74.5%; in the data set with Rattus norvegicus [7], “Toxic”. Besides, the Activity result in the data set with Rattus norvegicus [8] is recorded as “Toxic”; in the data set with Rattus norvegicus [9], “Toxic”; with Rattus norvegicus [10], “Toxic”; in the data set on Rattus norvegicus [11], “Non-toxic”; in the data set on Rattus norvegicus [12], “Non-toxic”. This molecule also gave an MTD in data set [13] of 2000 mg/kg.
Consider `COc1ccc(O)c(C(C)(C)C)c1.COc1ccc(O)cc1C(C)(C)C`, for which the Activity in data set [1] amounted to 8050 µmol; in data set [3] it was 16.1 mg; in [4], 170 µg; in [5], 79.1%; in data set [6], 76.5%.
Turning to `Cc1[nH]nc2c1c(=O)[nH]c1ccccc12`, the Activity in data set [1] came out at 1230 µmol; in data set [2], 150 mmol; in data set [3] it was 10.4 mg; in data set [4], 1110 µg; in [5], 18.5%; in data set [6] it was 8.7%.
As to `Cc1nc(=S)[nH]c2c1c(=O)[nH]c1ccccc12`, the Activity in [1] turned out to be 3630 µmol; in data set [2], 145 mmol; in data set [3] it was 9.6 mg; in [4], 1040 µg; in data set [5], 12%; in data set [6], 22.4%.
